The results in this text go back to patent US8710043B2, “TRPM8 antagonists and their use in treatments” (Amgen Inc., priority 2011, dated 2014).

SMILES strings stand for the structures. Where a name gives a salt, the structure may show the parent alone.

The target in this assay is T1, human TRPM8 (Homo sapiens, UniProt Q7Z2W7).
T1 construct: expressed in transfected cells; host or cells: Chinese hamster ovary (CHO) cells, T-REx tetracycline-inducible system, co-transfected with aequorin
The assay is described as follows: Luminescence readout assay for measuring intracellular calcium, icilin activation. The class given is cell-based. To be noted: CHO cells expressing human TRPM8, aequorin luminescence, 1 μM icilin activation; read-out: hTRPM8 IC50. The gist of the method:
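The read-out was luminescence reporting intracellular calcium, recorded by a CCD-based luminometer. Compounds were preincubated for 2.5 min before agonist challenge with 1 μM icilin. Human TRPM8 was expressed in a stable T-REx CHO line, induced with 0.5 μg/mL tetracycline the day before.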
(In general: Calcium assays in cells follow changes in intracellular calcium, usually with a dye or a luminescent sensor.)

T1 sequence (Q7Z2W7 whole entry): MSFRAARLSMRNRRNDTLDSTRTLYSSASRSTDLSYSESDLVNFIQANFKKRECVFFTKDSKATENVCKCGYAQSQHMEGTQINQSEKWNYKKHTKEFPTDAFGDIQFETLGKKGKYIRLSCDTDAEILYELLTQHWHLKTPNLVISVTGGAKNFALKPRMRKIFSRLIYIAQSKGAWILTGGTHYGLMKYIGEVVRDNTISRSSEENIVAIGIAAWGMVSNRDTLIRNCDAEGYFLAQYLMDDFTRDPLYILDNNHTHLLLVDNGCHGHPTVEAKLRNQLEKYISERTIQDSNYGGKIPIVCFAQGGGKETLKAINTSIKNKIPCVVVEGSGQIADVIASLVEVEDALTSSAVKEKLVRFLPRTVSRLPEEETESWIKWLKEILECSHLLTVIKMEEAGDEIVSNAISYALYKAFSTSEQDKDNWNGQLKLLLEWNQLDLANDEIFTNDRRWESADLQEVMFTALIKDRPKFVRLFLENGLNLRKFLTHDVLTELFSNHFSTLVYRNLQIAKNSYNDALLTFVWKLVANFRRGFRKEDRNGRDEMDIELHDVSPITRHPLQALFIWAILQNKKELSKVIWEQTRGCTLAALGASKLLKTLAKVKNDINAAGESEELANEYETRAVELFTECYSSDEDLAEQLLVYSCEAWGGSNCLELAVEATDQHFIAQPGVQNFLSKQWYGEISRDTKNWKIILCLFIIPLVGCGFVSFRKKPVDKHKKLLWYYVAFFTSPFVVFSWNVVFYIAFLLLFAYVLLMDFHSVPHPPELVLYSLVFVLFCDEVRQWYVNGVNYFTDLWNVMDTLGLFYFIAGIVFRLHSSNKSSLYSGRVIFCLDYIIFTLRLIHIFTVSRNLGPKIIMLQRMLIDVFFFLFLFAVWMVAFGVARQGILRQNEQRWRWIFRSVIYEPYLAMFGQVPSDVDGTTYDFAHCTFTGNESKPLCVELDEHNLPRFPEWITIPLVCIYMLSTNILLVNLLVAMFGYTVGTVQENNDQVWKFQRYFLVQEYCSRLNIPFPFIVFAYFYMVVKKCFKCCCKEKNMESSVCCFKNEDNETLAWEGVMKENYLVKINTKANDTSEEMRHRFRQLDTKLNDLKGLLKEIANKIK

`CC(=O)Oc1ccc(C(=O)N[C@@H](c2ccc(C(F)(F)F)cc2)c2ncccc2F)cc1N` [Example 431, (S)-2-Amino-4-(((3-fluoropyridin-2-yl)(4-(trifluoromethyl)phenyl)methyl)carbamoyl)phenyl Acetate]: the IC50 (in general, the point on the concentration scale where inhibition reaches its midpoint) was found to be 56.4 nM. To `O=C(N[C@@H](c1ccc(C(F)(F)F)cc1)c1ncccc1C(F)(F)F)c1ccnnc1` [Example 212, (S)-N-((4-(trifluoromethyl)phenyl)(3-(trifluoromethyl)pyridin-2-yl)methyl)pyridazine-4-carboxamide] belongs 81.5 nM; to `O=C(N[C@@H](c1ccc(C(F)(F)F)cc1)c1ncccc1F)c1c[nH]c2ncccc12` [Example 54, (S)-N-((3-fluoropyridin-2-yl)(4-(trifluoromethyl)phenyl)methyl)-1H-pyrrolo[2,3-b]pyridine-3-carboxamide], 23.1 nM; to `Cc1ccc(C(=O)N[C@@H](c2ccc(C(F)(F)F)cc2)c2ncccc2F)cn1` [Example 52, (S)-N-((3-fluoropyridin-2-yl)(4-(trifluoromethyl)phenyl)methyl)-6-methylnicotinamide], 40.1 nM. Consider `CS(=O)(=O)Nc1ccc(C(=O)N[C@@H](c2ccc(C(F)(F)F)cc2)c2ncccc2F)cc1` [Example 213, (S)-N-((3-fluoropyridin-2-yl)(4-(trifluoromethyl)phenyl)methyl)-4-(methylsulfonamido)benzamide], for which the IC50 is 43 nM. The value for `O=C(N[C@@H](c1ccc(C(F)(F)F)c(F)c1)c1ncccc1C(F)(F)F)c1ccc2nccnc2c1` [Example 108, (S)-N-((3-fluoro-4-(trifluoromethyl)phenyl)(3-(trifluoromethyl)pyridin-2-yl)methyl)quinoxaline-6-carboxamide] was 24.1 nM; that for `C=Cc1cccnc1[C@@H](NC(=O)c1ccc(=O)[nH]c1)c1ccc(C(F)(F)F)cc1` [Example 363, (S)-6-oxo-N-((4-(trifluoromethyl)phenyl)(3-vinylpyridin-2-yl)methyl)-1,6-dihydropyridine-3-carboxamide] was 29.5 nM.

For the compound `O=C(N[C@@H](c1cc(F)cc(C(F)(F)F)c1)c1ncccc1F)c1ccc(=O)[nH]c1` [Example 327, (S)-N-((3-fluoro-5-(trifluoromethyl)phenyl)(3-fluoropyridin-2-yl)methyl)-6-oxo-1,6-dihydropyridine-3-carboxamide], the IC50 is 302 nM. Regarding `O=C(N[C@@H](c1ccc(C(F)(F)F)cc1)c1ncccc1F)c1ccc2nccc(O)c2c1` [Example 114, (S)-N-((3-fluoropyridin-2-yl)(4-(trifluoromethyl)phenyl)methyl)-4-hydroxyquinoline-6-carboxamide 2,2,2-trifluoroacetate], the IC50 was found to be 50.6 nM.

For the compound `O=C(N[C@@H](c1ccc(OC(F)(F)F)c(F)c1)c1ncccc1F)c1ccc(=O)n(C[C@H](O)C(F)(F)F)c1` [Example 408, N-((S)-(3-fluoro-4-(trifluoromethoxy)phenyl)(3-fluoropyridin-2-yl)methyl)-6-oxo-1-((S)-3,3,3-trifluoro-2-hydroxypropyl)-1,6-dihydropyridine-3-carboxamide], the IC50 amounted to 78.1 nM. Consider `COc1ccccc1C(=O)N[C@@H](c1ccc(C(F)(F)F)cc1)c1ncccc1F` [Example 169, (S)-N-((3-fluoropyridin-2-yl)(4-(trifluoromethyl)phenyl)methyl)-2-methoxybenzamide], for which the IC50 came to 10.4 nM. The value for `O=C(N[C@@H](c1ccc(OC(F)(F)F)cc1)c1ncccc1F)c1cccs1` [Example 374, (S)-N-((3-fluoropyridin-2-yl)(4-(trifluoromethoxy)phenyl)methyl)thiophene-2-carboxamide] was 52.4 nM; that for `N#Cc1cccc(C(=O)N[C@@H](c2ccc(C(F)(F)F)cc2)c2ncccc2F)c1` [Example 184, (S)-3-cyano-N-((3-fluoropyridin-2-yl)(4-(trifluoromethyl)phenyl)methyl)benzamide] was 52.9 nM; that for `Cc1cc(C(=O)N[C@@H](c2ccc(C(F)(F)F)cc2)c2ncccc2C(F)(F)F)ccn1` [Example 39, (S)-2-methyl-N-((4-(trifluoromethyl)phenyl)(3-(trifluoromethyl)pyridin-2-yl)methyl)isonicotinamide] was 17.8 nM. As for `CN1C(=O)c2ccc(C(=O)N[C@@H](c3ccc(C(F)(F)F)cc3)c3ncccc3C(F)(F)F)cc2C1=O` [Example 270, (S)-2-Methyl-1,3-dioxo-N-((4-(trifluoromethyl)phenyl)(3-(trifluoromethyl)pyridin-2-yl)methyl)isoindoline-5-carboxamide], the IC50 worked out at 19.1 nM.

For `COc1cccc(C(=O)N[C@@H](c2ccc(C(F)(F)F)cc2)c2ncccc2C(F)(F)F)c1` [Example 191, (S)-3-methoxy-N-((4-(trifluoromethyl)phenyl)(3-(trifluoromethyl)pyridin-2-yl)methyl)benzamide], the IC50 is 78.9 nM. Regarding `O=C(N[C@@H](c1ccc(OC(F)(F)F)c(F)c1)c1ncccc1F)c1c[nH]c(=O)c(Cl)c1` [Example 401, (S)-5-chloro-N-((3-fluoro-4-(trifluoromethoxy)phenyl)(3-fluoropyridin-2-yl)methyl)-6-oxo-1,6-dihydropyridine-3-carboxamide], the IC50 is 12.8 nM. To `CCNc1ccc(C(=O)N[C@@H](c2ccc(C(F)(F)F)cc2)c2ncccc2C(F)(F)F)cn1` [Example 263, (S)-6-(Ethylamino)-N-((4-(trifluoromethyl)phenyl)(3-(trifluoromethyl)pyridin-2-yl)methyl)nicotinamide] belongs 133 nM. With `O=C(N[C@@H](c1ccc(C(F)(F)F)cc1)c1ncccc1C(F)(F)F)[C@@H]1CCCO1` [Example 234, (S)-N-((S)-(4-(trifluoromethyl)phenyl)(3-(trifluoromethyl)pyridin-2-yl)methyl)THF-2-carboxamide], the IC50 is 169 nM. The value for `O=C(N[C@@H](c1ccc(C(F)(F)F)cc1)c1ncccc1F)c1cccs1` [Example 375, (S)-N-((3-fluoropyridin-2-yl)(4-(trifluoromethyl)phenyl)methyl)thiophene-2-carboxamide] was 30.3 nM; that for `O=C(N[C@@H](c1ccc(OC(F)(F)F)cc1)c1ncccc1F)c1c[nH]c(=O)cn1` [Example 354, (S)-N-((3-fluoropyridin-2-yl)(4-(trifluoromethoxy)phenyl)methyl)-5-oxo-4,5-dihydropyrazine-2-carboxamide] was 68.1 nM. Turning to `O=C(N[C@@H](c1ccc(C(F)(F)F)cc1)c1ncccc1F)c1ccc2[nH]c(=O)[nH]c2c1` [Example 177, (S)-N-((3-fluoropyridin-2-yl)(4-(trifluoromethyl)phenyl)methyl)-2-oxo-2,3-dihydro-1H-benzo[d]imidazole-5-carboxamide], the IC50 turned out to be 20.8 nM. To `O=C(O)c1cccc(C(=O)N[C@@H](c2ccc(OC(F)(F)F)c(F)c2)c2ncccc2F)n1` [Example 415, (S)-6-(((3-fluoro-4-(trifluoromethoxy)phenyl)(3-fluoropyridin-2-yl)methyl)carbamoyl)picolinic acid trifluoroacetate] belongs 648 nM. The value for `O=C(N[C@@H](c1ccc(C(F)(F)F)cc1)c1ncccc1C(F)(F)F)c1ccc2c(c1)C(=O)NC2=O` [Example 94, (S)-1,3-dioxo-N-((4-(trifluoromethyl)phenyl)(3-(trifluoromethyl)pyridin-2-yl)methyl)isoindoline-5-carboxamide] was 41.4 nM. Turning to `CCCN1C(=O)c2ccc(C(=O)N[C@@H](c3ccc(C(F)(F)F)cc3)c3ncccc3C(F)(F)F)cc2C1=O` [Example 269, (S)-1,3-Dioxo-2-propyl-N-((4-(trifluoromethyl)phenyl)(3-(trifluoromethyl)pyridin-2-yl)methyl)isoindoline-5-carboxamide], the IC50 is 136 nM. In the case of `O=C(NC(c1cccc(F)c1)c1ccc(OC(F)(F)F)c(F)c1)c1ccc(=O)[nH]c1` (centres unmarked) [Example 417, N-((3-fluoro-4-(trifluoromethoxy)phenyl)(3-fluorophenyl)methyl)-6-oxo-1,6-dihydropyridine-3-carboxamide], the IC50 was found to be 83 nM. To `Cc1ccc(C(NC(=O)c2ccc(=O)[nH]c2)c2ccc(OC(F)(F)F)c(F)c2)nc1` (centres unmarked) [Example 424, N-((3-fluoro-4-(trifluoromethoxy)phenyl)(5-methylpyridin-2-yl)methyl)-6-oxo-1,6-dihydropyridine-3-carboxamide] belongs 92 nM. To `O=C(N[C@@H](c1cccc(F)c1)c1ncccc1C(F)(F)F)c1ccc2cccnc2c1` [Example 17, (S)-N-((3-fluorophenyl)(3-(trifluoromethyl)pyridin-2-yl)methyl)quinoline-7-carboxamide] belongs 230 nM; to `O=C(N[C@@H](c1ccc(C(F)(F)F)cc1)c1ncccc1F)c1ccc(O)cn1` [Example 173, (S)-N-((3-fluoropyridin-2-yl)(4-(trifluoromethyl)phenyl)methyl)-5-hydroxypicolinamide], 15.3 nM; to `O=C(N[C@@H](c1ccc(C(F)(F)F)cc1)c1ncccc1C(F)(F)F)c1ccc(Cl)cc1` [Example 185, (S)-4-chloro-N-((4-(trifluoromethyl)phenyl)(3-(trifluoromethyl)pyridin-2-yl)methyl)benzamide], 29 nM. Regarding `O=C(N[C@@H](c1ccc(C(F)(F)F)cc1)c1ncccc1C(F)(F)F)c1ccc2nccn2c1` [Example 254, (S)-N-((4-(trifluoromethyl)phenyl)(3-(trifluoromethyl)pyridin-2-yl)methyl)imidazo[1,2-a]pyridine-6-carboxamide 2,2,2-trifluoroacetate], the IC50 came to 11.8 nM. On to `O=C(N[C@@H](c1ccc(C(F)(F)F)cc1)c1ncccc1F)c1ccc2[nH]c(=O)ccc2c1` [Example 104, (S)-N-((3-fluoropyridin-2-yl)(4-(trifluoromethyl)phenyl)methyl)-2-oxo-1,2-dihydroquinoline-6-carboxamide], for which the IC50 came to 6.2 nM.
